These results are taken from US20230357139A1, “SMALL MOLECULE INHIBITORS OF BACTERIAL TOXINS” (Artizan Biosciences, Inc., priority 2020, published 2023).

Assay [1] deals with Gelatinase E (GelE) (Enterococcus faecalis (strain ATCC 700802 / V583), UniProt Q833V7). As to the kind of experiment: Gelatinase E activity assay (FRET peptide substrate). It counts as biochemical. Conditions: for IC50: Table 11. As for the experimental part: Gelatinase E (Gel E) was purified from bacterial culture supernatant from E. faecalis. E. faecalis was cultured aerobically in Todd Hewitt Broth overnight at 37° C. Nucleic acid was precipitated with 0.9% protamine solution, followed by protein precipitation with ammonium sulfate. Resuspended protein pellet was further subjected to purification using FPLC (phenyl Sepharose column). Fractions with gelatinase activity as determined by casein agar assay were pooled and further concentrated.
Different concentrations of test compound were incubated with purified GelE and FRET-based peptide substrate (390 MMP FRET Substrate 1; Anaspec AS-27077) in assay buffer at room temperature for 30 minutes. The fluorescence signal was determined by a plate reader.

Assay [2] has as its target collagenase H (ColH) (Hathewaya histolytica, UniProt Q46085). As to the kind of experiment: biochemical. Also noted: species or system Clostridium histolyticum.
In assay [3] the test system is BFT. As to the kind of experiment: E-cadherin release assay (BFT-induced E-cadherin release from HT29 cells). It is filed as cell-based, B. fragilis. The protocol: Test compounds were also screened for their ability to inhibit BFT-induced E-cadherin release from HT29 cells.
Different concentrations of test compounds were pre-incubated with rBFT for one hour at 37° C. The rBFT-compound mixture was then added to HT29 cells and incubated at 37° C. for 18 hours. Following incubation, cell supernatants were harvested and E-cadherin was quantified in the supernatants by ELISA (FIG. 2).

Assay [4] deals with recombinant BFT (rBFT). As to the kind of experiment: NFF-3 cleavage assay. It is filed as biochemical, B. fragilis. The protocol:
A NFF-3 cleavage assay was used to test activity of recombinant BFT, before or after addition of various inhibitors. The NFF-3 cleavage assay was previously described by Goulas et al., PNAS, 2011, 108(5) 1856-1861, which is incorporated by reference herein in its entirety.
Initially, recombinant BFT (rBFT) (0.25, 0.5, 1, 2, 4, 8, or 16 μg/mL) was incubated at 37° C. with the fluorogenic substrate NFF-3 (Cayman Chemical) at a concentration of 2.5 μM, 5 μM, or 10 μM. After 18 hours, fluorescence was measured in a microplate fluorimeter.
Next, rBFT was pre-incubated with one or more test compounds at different concentrations for 30 minutes at 37° C. The rBFT-compound mixture was then added to NFF-3 and incubated for 24 hours at 37° C. Fluorescence was then measured in a microplate fluorimeter.

[5] abbreviates: 18 hours, E-cadherin in supernatant by ELISA, read-out: HT29 Cell IC50.
The mark [6] stands for this setting: rBFT pre-incubated with compound 30 minutes at 37° C., then NFF-3 for 24 hours, read-out: NFF3 IC50.

Read-outs that look alike come from different tables or passages of the source.

Gelatinase E (GelE), sequence (Q833V7 193-510 limits assumed): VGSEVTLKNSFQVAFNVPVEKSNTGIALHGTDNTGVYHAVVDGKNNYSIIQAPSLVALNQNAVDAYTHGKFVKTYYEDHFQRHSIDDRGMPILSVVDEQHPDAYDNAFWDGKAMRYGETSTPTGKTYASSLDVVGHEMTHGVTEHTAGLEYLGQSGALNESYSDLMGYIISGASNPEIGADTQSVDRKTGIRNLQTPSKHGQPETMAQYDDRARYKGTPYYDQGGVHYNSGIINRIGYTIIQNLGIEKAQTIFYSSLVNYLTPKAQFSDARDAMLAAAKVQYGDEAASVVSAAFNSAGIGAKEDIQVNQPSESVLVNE
collagenase H (ColH), sequence (Q46085 41-1021 limits assumed): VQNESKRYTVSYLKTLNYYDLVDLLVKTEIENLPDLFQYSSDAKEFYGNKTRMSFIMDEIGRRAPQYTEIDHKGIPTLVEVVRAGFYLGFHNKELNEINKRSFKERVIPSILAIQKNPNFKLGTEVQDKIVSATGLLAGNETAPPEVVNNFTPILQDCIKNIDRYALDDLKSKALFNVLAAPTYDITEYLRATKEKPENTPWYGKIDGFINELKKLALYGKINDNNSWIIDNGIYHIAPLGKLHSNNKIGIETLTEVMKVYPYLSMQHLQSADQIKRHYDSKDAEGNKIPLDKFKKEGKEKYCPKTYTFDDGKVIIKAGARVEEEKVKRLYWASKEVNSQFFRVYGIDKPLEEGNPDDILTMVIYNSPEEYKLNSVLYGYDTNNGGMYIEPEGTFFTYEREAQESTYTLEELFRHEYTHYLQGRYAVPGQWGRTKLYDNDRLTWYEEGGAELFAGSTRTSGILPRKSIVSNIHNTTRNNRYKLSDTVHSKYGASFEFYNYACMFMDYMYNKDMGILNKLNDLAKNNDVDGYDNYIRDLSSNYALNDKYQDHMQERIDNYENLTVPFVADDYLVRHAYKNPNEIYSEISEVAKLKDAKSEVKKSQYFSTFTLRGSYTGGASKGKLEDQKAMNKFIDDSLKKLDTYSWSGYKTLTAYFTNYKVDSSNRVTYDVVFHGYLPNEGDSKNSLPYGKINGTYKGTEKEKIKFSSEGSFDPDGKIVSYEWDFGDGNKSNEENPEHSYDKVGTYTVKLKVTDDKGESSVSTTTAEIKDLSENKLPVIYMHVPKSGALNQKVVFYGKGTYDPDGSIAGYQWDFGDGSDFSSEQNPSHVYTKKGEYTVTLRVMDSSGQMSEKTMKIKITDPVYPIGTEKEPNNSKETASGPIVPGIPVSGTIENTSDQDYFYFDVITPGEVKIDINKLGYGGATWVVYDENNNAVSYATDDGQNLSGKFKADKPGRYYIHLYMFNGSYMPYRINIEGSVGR

Consider `CNC(=O)COc1ccc(S(=O)(=O)N(CC(=O)NO)CC(C)C)cc1` [K], for which the figures for the IC50 in assay [1] and in assay [2] were 512 nM and over 100000 nM, respectively.
Take `CC(C)C[C@H](C(=O)NO)N(Cc1ccncc1)S(=O)(=O)c1ccc(O)cc1` [Example 28]: the IC50 (usually the midpoint of a concentration-inhibition curve) in assay [3] (setting [5]) came out at 198 nM.
Consider `COc1ccc(S(=O)(=O)N(Cc2cccnc2)[C@H](Cc2ccccc2)C(=O)NO)cc1` [Example 19], for which the figures for the IC50 in assay [3] (setting [5]) and in assay [4] (setting [6]) were 8260 nM and 1240 nM, respectively.
Take `COc1ccc(S(=O)(=O)N(CC(=O)NO)CC(C)C)cc1` [A]: in assay [1] (FIG. 7), the “GelE inhibition” value is reported as “high levels of GelE inhibition”. The IC50 in assay [1] was determined as 202 nM; in assay [2] (read-out: ColH IC50), 612 nM. For the same molecule, the “ColH inhibition” value in assay [2] is given as “high levels of ColH inhibition”.
Regarding `CC[C@H](C(=O)NO)N(Cc1cccnc1)S(=O)(=O)c1ccc(O)cc1` [Example 25], the figures for the IC50 in assay [3] (setting [5]) and in assay [4] (setting [6]) were 780 nM and 90 nM, respectively.
Take `CC(C)C[C@H](C(=O)NO)N(Cc1cscn1)S(=O)(=O)c1ccc(O)cc1` [Example 30]: the IC50 in assay [3] (setting [5]) was 970 nM.
With `COc1ccc(S(=O)(=O)N(CC(=O)O)Cc2cccnc2)cc1` [I], the IC50 in assay [1] and in assay [2] (read-out: ColH IC50) was over 100000 nM in each case.
In the case of `COc1ccc(S(=O)(=O)N(Cc2cccnc2)[C@H](Cc2ccc(C(F)(F)F)cc2)C(=O)NO)cc1` [Example 21], the values for the IC50 in assay [3] (setting [5]) and in assay [4] (setting [6]) were over 16000 nM and 2750 nM, respectively.
The like results for `O=C(NO)[C@@H](Cc1ccccc1)N(Cc1cccnc1)S(=O)(=O)c1ccc(O)cc1` [Example 5] were, in that order, 4910 nM and 240 nM.
In the case of `CC(C)CN(CC(=O)NO)S(=O)(=O)c1ccc(OCC(=O)NCc2ccsc2)cc1` [AC], the IC50 in assay [1] stood at 139 nM.
Still for that read-out and setting: for `CC(C)CN(CC(=O)NO)S(=O)(=O)c1ccc(OCC(=O)NCc2cccc(Cl)c2)cc1` [AG, N-(3-chlorobenzyl)-2-(4-(N-(2-(hydroxyamino)-2-oxoethyl)-N-isobutylsulfamoyl)phenoxy)acetamide] the value was 103 nM; for `COCCN(CC(=O)NO)S(=O)(=O)c1ccc(OC)cc1` [Y], 6760 nM; for `CSc1cccc(CNC(=O)COc2ccc(S(=O)(=O)N(CC(=O)NO)CC(C)C)cc2)c1` [AQ], 119 nM.
`COCCOc1ccc(S(=O)(=O)N(CC(=O)NO)CC(C)C)cc1` [G]: the values for the IC50 in assay [1] and in assay [2] (read-out: ColH IC50) were 443 nM and over 100000 nM, respectively.
`CC(C)CN(CC(=O)NO)S(=O)(=O)c1ccc(OCC(=O)NCc2cccc(C(F)(F)F)c2)cc1` [AF] registered a 50% inhibitory concentration (IC50) in assay [1] of 113 nM.
Regarding `CSc1ccc(S(=O)(=O)N(CC(=O)NO)CC(C)C)cc1` [M], the IC50 in assay [1] is 257 nM; in assay [2] (read-out: ColH IC50), over 100000 nM.
`CC(C)CN(CC(=O)NO)S(=O)(=O)c1ccc(OCC(=O)NCc2ccc(C(F)(F)F)cc2)cc1` [AH] showed an IC50 in assay [1] of 238 nM.
For the molecule `CC(C)CN(CC(=O)NO)S(=O)(=O)c1ccc(OC(C)C)cc1` [E], the IC50 is 1210 nM in assay [1] and over 100000 nM in assay [2] (read-out: ColH IC50).
For `O=C(NO)[C@@H](Cc1ccc(O)cc1)N(Cc1cccnc1)S(=O)(=O)c1ccc(O)cc1` [Example 4], the IC50 in assay [3] (setting [5]) turned out to be 6330 nM; in assay [4] (setting [6]), 2040 nM.
For the molecule `CC(C)[C@H](C(=O)NO)N(Cc1cccnc1)S(=O)(=O)c1ccc(O)cc1` [OH-CGS-27023A, 2(R)-[4-hydroxy-N-(3-pyridylmethyl)phenylsulfonamido]-3-methylbutyrohydroxamic acid, reference compound], the IC50 in assay [3] (FIG. 4, read-out: IC50, inhibition of BFT (E-cadherin release)) came out at 1990 nM; in assay [4] (Table 9, FIG. 5B, read-out: IC50, inhibition of BFT-induced NFF-3 release) it was 366 nM.
On to `COc1ccc(S(=O)(=O)N(CC(=O)NO)CC(F)F)cc1` [P], for which the IC50 in assay [1] is 9090 nM; in assay [2] (read-out: ColH IC50), over 100000 nM.
The like results for `CC(C)CN(CC(=O)NO)S(=O)(=O)c1ccc(OCc2ccc(F)cc2)cc1` [F] were, in that order, 649 nM and over 100000 nM.
For `COc1ccc(CNC(=O)COc2ccc(S(=O)(=O)N(CC(=O)NO)CC(C)C)cc2)cc1` [AE], the IC50 in assay [1] turned out to be 156 nM.
On to `O=C(NO)C(c1ccc(F)cc1)N(Cc1cccnc1)S(=O)(=O)c1ccc(O)cc1` (stereo not drawn) [Example 23], for which the IC50 was over 50000 nM in assay [3] (setting [5]) and 300 nM in assay [4] (setting [6]).
As to `CCCOc1ccc(S(=O)(=O)N(CC(=O)NO)CC(C)C)cc1` [D], the IC50 in assay [1] was 489 nM; in assay [2] (read-out: ColH IC50) it was over 100000 nM.
In the case of `CC(C)CN(CC(=O)NO)S(=O)(=O)c1ccc(OCC(=O)NC(C)c2ccccc2)cc1` (stereo not drawn) [AR], in assay [1], the IC50 was determined as 237 nM.
Same read-out and setting: for `CC(C)CN(CC(=O)NO)S(=O)(=O)c1ccc(OCC(=O)NCc2ccc(F)cc2)cc1` [AJ] the value was 313 nM.
Still for that read-out and setting: the value for `CC(C)CN(CC(=O)NO)S(=O)(=O)c1ccc(OCC(=O)NCc2ccccn2)cc1` [AP] was 177 nM; that for `CC(C)CN(CC(=O)NO)S(=O)(=O)c1ccc(OCC(=O)NCc2ccccc2)cc1` [B] was 130 nM; that for `CC(C)CN(CC(=O)NO)S(=O)(=O)c1ccc(OCC(=O)NCc2cccc(F)c2)cc1` [AN] was 158 nM.
Regarding `COc1cccc(S(=O)(=O)N(Cc2cccnc2)[C@H](CC(C)C)C(=O)NO)c1` [Example 31], the IC50 in assay [3] (setting [5]) was over 50000 nM; in assay [4] (setting [6]) it was 20100 nM.
The like results for `O=C(CN(Cc1cccnc1)S(=O)(=O)c1ccc(O)cc1)NO` [Example 24] were, in that order, 19100 nM and 1100 nM.
Take `COc1ccc(S(=O)(=O)N(CC(=O)NO)CC(C)C)cn1` [L]: the results for the IC50 in assay [1] and in assay [2] (read-out: ColH IC50) were 336 nM and over 100000 nM, respectively.
`CC(C)C[C@H](C(=O)NO)N(Cc1cnco1)S(=O)(=O)c1ccc(O)cc1` [Example 32]: the figures for the IC50 in assay [3] (setting [5]) and in assay [4] (setting [6]) were 5170 nM and 510 nM, respectively.
As for `COc1ccc(-n2ccc(CCC(=O)NO)n2)cc1` [V], inhibition in assay [1] was half-maximal at 12700 nM (IC50).
On to `CSCC[C@H](C(=O)NO)N(Cc1cccnc1)S(=O)(=O)c1ccc(O)cc1` [Example 3], for which the half-maximal inhibitory concentration (IC50) in assay [3] (setting [5]) came out at 3840 nM; in assay [4] (setting [6]) it was 240 nM.
The like results for `C[C@H](O)[C@H](C(=O)NO)N(Cc1cccnc1)S(=O)(=O)c1ccc(O)cc1` [Example 2] were, in that order, 6720 nM and over 1000 nM.
In turn, `CC(C)CN(CC(=O)NO)S(=O)(=O)c1ccc(OCCCF)cc1` [AB] had an IC50 in assay [1] of 2400 nM.
Regarding `CC(C)C[C@H](C(=O)NO)N(Cc1cccnc1)S(=O)(=O)c1ccc(O)cc1` [Example 1, (R)—N-hydroxy-2-((4-hydroxy-N-(pyridin-3-ylmethyl)phenyl)sulfonamido)-4-methylpentanamide], the IC50 in assay [3] (setting [5]) is 1520 nM; in assay [4] (setting [6]) it was under 150 nM.
The like results for `CC(C)C[C@H](C(=O)NO)N(Cc1cccnc1)S(=O)(=O)c1cccc(O)c1` [Example 27] were, in that order, over 50000 nM and 5950 nM.
The corresponding values for `O=C(NO)C(c1ccccc1)N(Cc1cccnc1)S(=O)(=O)c1ccc(O)cc1` (stereo not drawn) [Example 22] are 17300 nM and 660 nM.
The like results for `O=C(NO)[C@@H](Cc1ccc(C(F)(F)F)cc1)N(Cc1cccnc1)S(=O)(=O)c1ccc(O)cc1` [Example 20] were, in that order, 7320 nM and 860 nM.
Molecule `CC(C)CN(CC(=O)NO)S(=O)(=O)c1ccc(OCC(=O)NCc2cc(F)cc(F)c2)cc1` [AO] registered an IC50 in assay [1] of over 10000 nM.
In the case of `O=C(NO)[C@@H](Cc1c[nH]c2ccccc12)N(Cc1cccnc1)S(=O)(=O)c1ccc(O)cc1` [Example 6], the IC50 in assay [3] (setting [5]) was 1620 nM; in assay [4] (setting [6]) it was 150 nM.
On to `Cc1cccc(CNC(=O)COc2ccc(S(=O)(=O)N(CC(=O)NO)CC(C)C)cc2)c1` [AK], for which the IC50 in assay [1] was over 10000 nM.
Molecule `CCC[C@H](C(=O)NO)N(Cc1ccc2[nH]ccc2c1)S(=O)(=O)c1ccc(O)cc1` [Example 63] displayed a 50% inhibitory concentration (IC50) in assay [2] of 8890 nM.
